According to article PMC9220178, “Preclinical Characterization of Antioxidant Quinolyl Nitrone QN23 as a New Candidate for the Treatment of Ischemic Stroke” (Antioxidants, 2022):

Experiments:
[1] = test system: adult male Wistar rats, four-vessel occlusion (4VO) transient forebrain ischemia; experiment: Neuronal death by Fluoro-Jade B staining after transient global cerebral ischemia (4VO); assay type: in vivo, rat; details: for Neuroprotection (neuronal death, Fluoro-Jade B): vehicle = 0%
Experimental: Transient forebrain ischemia was induced in adult male Wistar rats (10–12 weeks, Charles River, L’Arbresle, France) by the standard four-vessel occlusion (4VO) model previously described. Briefly, animals were anesthetized by intraperitoneal injection of a combination of ketamine, diazepam, and atropine (62.5, 5.0, and 0.25 mg/kg, respectively); positioned in a stereotactic device; and both vertebral arteries were cauterized. The next day, anesthesia was induced with 4% isoflurane and maintained at 2–2.5% isoflurane for carotid artery dissection. After anesthesia withdrawal, the carotid arteries were occluded with an atraumatic vascular clamp to induce brain ischemia. During the entire surgical procedure, temperature was monitored at 2 min intervals and kept at 37 °C. After 15 min of ischemia, the carotid arteries were unclamped for brain reperfusion. The animals were studied after 5 days of reperfusion (R5d), or after 11 weeks of reperfusion (long-term studies), and then they were euthanized under deep anesthesia. Animals from the sham control group were handled in the same way, but without occlusion of the carotid arteries. Ischemic animals were treated with vehicle solution (ethanol/polyethylene glycol 400/saline, 1:300:200 v/v), or with nitrones QN23 or NXY-059 in vehicle solution, as a single injection through the tail vein at the onset of reperfusion. For the therapeutic window experiments, the animals were also treated at reperfusion times 1, 3, and 6 h after ischemia. The treatments were prepared by an independent researcher and administered with concealed allocation. Treatments were administered in a randomized order obtained by a computer-based randomization program. To determine the sample size, a power analysis (http://www.biomath.info/power/ttest.htm, accessed on 12 March 2020) with significance level set at 0.05 and statistical power set at 0.8 (80%) rendered a sample size of <6 subjects per group. A total of 120 ischemic animals (30 animals treated with vehicle, 60 treated with QN23, and 30 treated with NXY-059) and 9 sham control animals were included in these studies. Additionally, 13 animals were excluded from the study: 6 animals were not ischemic and 7 animals died within the 24 h after the surgical procedure (5 vehicles, 1 QN23-treated at 1.0 mg/kg, and 1 QN23-treated at 2.0 mg/kg). The Animal Care Ethics Committee of the Hospital Universitario Ramón y Cajal (Madrid, Spain) authorized all the procedures involving the animal experimentation reported here (authorization number 04/2020). These experiments were performed according to ARRIVE guidelines and the legislation on the protection of animals used for scientific purposes in Spain (RD 53/2013) and the EU (Directive 2010/63/EU). The study was designed and conducted according to the STAIR guidelines regarding physiological monitoring, sample randomization, predefined exclusion criteria, allocation concealment, blinded assessment of outcomes, dose–response definition, and a conflict-of-interest statement.
After 5 days of reperfusion (R5d), or at 11 weeks of reperfusion in long-term studies, animals were euthanized by transcardiac perfusion via the left ventricle under deep anesthesia. First, blood was washed out with 200 mL of ice-cold saline medium, followed by fixation with 4% (w/v) paraformaldehyde solution in PBS for brain preservation. Then, the brains were carefully removed from the cranial cavity and placed in 4% (w/v) paraformaldehyde solution in PBS overnight at 4 °C. The next day, the brains were sequentially placed in 10%, 20%, and 30% (w/v) sucrose in PBS until sunken, and finally embedded in Tissue-Tek O.C.T. (Sakura Finetek, Torrance, CA, USA) before freezing at −80 °C. Brain coronal sections containing the hippocampus region were obtained by cryostat sectioning at the level of interaural line +5.7 ± 0.2 mm on Real Capillary Gap microscope slides (Agilent Dako, Santa Clara, CA, USA). […]

[2] = test system: female Sprague Dawley rats; experiment: Toxicity study, 4-day repeated i.v. dose; assay type: in vivo, rat
Experimental: For the toxicokinetics study of QN23, female Sprague Dawley rats (9–10 weeks, Envigo, Barcelona, Spain) were divided into three groups (n = 6 per group) and treated intravenously with different concentrations of QN23 (2.0, 6.0, and 18 mg/kg), in vehicle solution (ethanol/polyethylene glycol 400/saline, 1:200:60 v/v), as a single bolus of 1 mL injection at 3 mL/min. Samples of plasma were taken at 0.25, 0.5, 1, 2, 4, and 8 h after the first administration (on day 1) and QN23 concentration was determined by liquid chromatography–mass spectrometry in tandem (LC-MS/MS) analysis for pharmacokinetic study. For the determination of the toxicokinetic parameters, a noncompartmental analysis was performed using the Phoenix 64 WinNonlin software (version 8.0, Certara, Sant Louis, MO, USA). This study was carried out by Swiss BioQuant AG (Reinach, Switzerland). For the toxicity study of QN23, rats were divided into four groups (n = 5 per group) and treated intravenously with vehicle (control group) or different concentrations of QN23 (2.0, 6.0, and 18 mg/kg) as a single bolus injection in a 4-day repeated dose as described above. Pathology analyses, comprising hematology, clinical biochemistry, and coagulation, were performed, and heart, kidney, liver, and spleen necropsies were collected for macroscopic analysis. This study was carried out by Vivotecnia Research S.L (Madrid, Spain).

[3] = cerebral cortex, 2.0 mg/kg i.v. at reperfusion onset, R5d
[4] = four-day repeated i.v. dose, 2.0, 6.0 and 18 mg/kg
[5] = four-day repeated i.v. dose, at some doses, no treatment-related effects concluded

COc1ccc2nc(Cl)c(/C=[N+](\[O-])C(C)(C)C)cc2c1 [QN23, (Z)-N-tert-Butyl-1-(2-chloro-6-methoxyquinolin-3-yl)methanimine Oxide]
Therapeutic window: injection time after reperfusion onset with significantly decreased neuronal death ([1]; 2.0 mg/kg i.v., CA1 and cortical regions, R5d, times tested 0, 1, 3, 6 h): up to 3 h
Neuroprotection (neuronal death, Fluoro-Jade B) ([1]; cerebral cortex, 1.5 mg/kg i.v. at reperfusion onset, R5d): 89.2%
Neuronal death compared with vehicle [1, 3]: significantly reduced
Neuroprotection (neuronal death, Fluoro-Jade B) [1, 3]: 89.5%
EC50 of neuroprotection, neuronal death assay ([1]; either CA1 or cortical region, i.v., from dose-response curve): 0.3 mg/kg
Neuroprotection (neuronal death, Fluoro-Jade B) ([1]; hippocampal CA1, 1.5 mg/kg i.v. at reperfusion onset, R5d): 22.6%
Neuroprotection (neuronal death, Fluoro-Jade B) ([1]; hippocampal CA1, 2.0 mg/kg i.v. at reperfusion onset, R5d): 23.8%
Neuronal death compared with vehicle ([1]; hippocampal CA1, 2.0 or 2.5 mg/kg i.v. at reperfusion onset, R5d): significantly reduced
Tolerability of repeated intravenous administration ([2]; 2.0, 6.0 and 18 mg/kg i.v. for four days): well tolerated
Treatment-related systemic signs ([2]; 2.0, 6.0 and 18 mg/kg i.v., four-day repeated dose, compared with control group): no treatment-related systemic signs were detected
Absolute or relative organ weights versus control group [2, 4]: no significant differences
Food intake [2, 4]: no effects were observed
Macroscopic findings at necropsy (heart, kidneys, liver, spleen) [2, 4]: no macroscopic findings
Alkaline phosphatase (ALP) level, slight variation [2, 5]: decreased
Aspartate aminotransferase (AST) level, slight variation [2, 5]: increased
